Earlier results in patent US10278869B2, “Apparatus for aspirating, irrigating and cleansing wounds” (SMITH & NEPHEW PLC, priority 2002, dated 2019).

Details: EP standard, CRS

Q: With gentamycin sulphate as the substance, how does the activity read?
A: Its activity is 616 IU mg^−1.
